Laboratory results taken from patent US20230147588A1, “USE OF1,9-DECANEDIOL IN INHIBITING AMMONIA VOLATILIZATION FROM SOIL” (INSTITUTION OF SOIL SCIENCE, CHINESE ACADEMY OF SCIENCES, priority 2021, published 2023).

Assays:
[1] = tested on: ammonia volatilization from soil; assay: Soil column culture: effects of different inhibitors on ammonia volatilization from soil (Test Example 2); conditions: 21 days; for inhibition of ammonia volatilization from soil compared with the urea treatment (U): 200 mg N per kg soil; for order of inhibition effects of ammonia volatilization, from high to low: suffix -100 / -500 = addition in soil in mg/kg, with urea
Description: A soil column culture method is used for the test (FIG. 1). The soil column is 18 centimeters (cm) in height and 5 cm in inner diameter, which is divided into a leak-proof layer, a soil-fertilizer mixed layer, a flooded layer, and an idle layer (also referred to as spare layer). A leak-proof pad and 1 cm thick quartz sand are placed in the leak-proof layer at a bottom of the soil column firstly to prevent soil leakage and simulate a real situation in the field, and then the experimental soil is added to the soil-fertilizer mixed layer, and after compaction, a bottom leaching switch is turned on and water is added to restore the soil activity. After one night of soil recovery activity, the bottom leaching switch is turned off, and the urea required for each treatment is mixed with 1,9-decanediol to prepare a mixed solution. The mixed solution is evenly applied to the soil-fertilizer mixture layer of the soil column, the water is added to maintain a flooded state, and the ammonia volatilization from soil is monitored for 21 consecutive days.
2.1 Test Soil: The Same as Test Example 1
2.2 test reagent: 1, 9-decanediol, the same as test example 1, dicyandiamide (DCD, C2H4N4), linolenic acid (LN, […]) and methyl 3-(4-hydroxyphenyl)propionate (MHPP, C10H12O3) are purchased from Sigma.
2.3 experimental treatments: urea treatment (U), DCD + urea treatment, LN + urea treatment, MHPP + urea treatment, and 1,9-decanediol + urea treatment are set in experiments, in which an addition of DCD in soil is 20 mg/kg, and additions of LN, MHPP and 1,9-decanediol in soil each includes 100 mg/kg and 500 mg/kg, numbered as: DCD, LN-100, LN-500, MHPP-100, MHPP-500, 1,9-D-100, and 1,9-D-500. Each treatment is repeated three times. The nitrogen application rate is 200 mg nitrogen per kilogram soil.
2.4 Experimental Steps: The Same as the Test Example 1

[2] = tested on: ammonia volatilization from soil; assay: Soil column culture: effects of 1,9-decanediol on ammonia volatilization from soil (Test Example 1); conditions: paddy soil column, 21 days
Method: 1.1 test soil: the test soil type is paddy soil, and the texture is sandy loam. It is collected from 0~20 centimeters (cm) topsoil of the experimental field in Yingtan City, Jiangxi Province (28°15′N, 116°55′E), sieved with a 2 millimeters (mm) sieve, and mixed evenly. See Table 1 for basic physical and chemical properties.
1.3 experimental treatment: urea treatment (U) and 1,9-decanediol + urea treatment are set in experiments. Among them, 1, 9-decanediol is added in soil at four levels of 100 mg/kg, 200 mg/kg, 500 mg/kg, and 1000 mg/kg, numbered as: 1, 9-D-100, 1, 9-D-200, 1, 9-D-500, and 1, 9-D-1000 respectively. Each treatment is repeated three times. The nitrogen application rate is 200 mg nitrogen per kilogram soil.
A soil column culture method is used for the test (FIG. 1). The soil column is 18 centimeters (cm) in height and 5 cm in inner diameter, which is divided into a leak-proof layer, a soil-fertilizer mixed layer, a flooded layer, and an idle layer (also referred to as spare layer). […] The mixed solution is evenly applied to the soil-fertilizer mixture layer of the soil column, the water is added to maintain a flooded state, and the ammonia volatilization from soil is monitored for 21 consecutive days.

nitrification process = conditions: at low concentration; cited from earlier work
[3] = paddy soil column, additions 100 and 500 mg/kg with urea

SMILES	ammonia volatilization from soil compared with LN and MHPP treatments [1, 3]	inhibition of ammonia volatilization from soil compared with the urea treatment (U) [1, 3]	order of inhibition effects of ammonia volatilization, from high to low [1]	dose dependence of the inhibition effect of ammonia volatilization ([2]; 100 to 1000 mg/kg in soil with urea)	total amount of ammonia volatilization from soil compared with the treatment (U) without 1,9-decanediol ([2]; flooded, 100, 200, 500, 1000 mg/kg in soil with urea, 200 mg N per kg soil)	inhibition of the nitrification process (nitrification process)
CC(O)CCCCCCCCO (centres unmarked) [1,9-decanediol]	significantly lower than that from soil treated with LN and MHPP	can inhibit ammonia volatilization from soil	1,9-D-500 > LN-500 > 1,9-D-100 >MHPP-500 > LN-100 > MHPP-100	more obvious with the increase of the dosage	significantly reduce the total amount of ammonia volatilization from soil	can inhibit the nitrification process at low concentration
COC(=O)CCc1ccc(O)cc1 [MHPP, methyl 3-(4-hydroxyphenyl)propionate, reference compound]	–	can inhibit ammonia volatilization from soil	1,9-D-500 > LN-500 > 1,9-D-100 >MHPP-500 > LN-100 > MHPP-100	–	–	–
